The subject of this test is Streptozotocin (STZ)-treated mice. The test can be described thus: Blood glucose lowering in Streptozotocin (STZ)-treated mice. It is filed as in vivo. As to conditions: insulin 1 IU/kg subcutaneously. As for the experimental part:
The efficacy of the Artemisia dracunculus extract was evaluated in Streptozotocin (STZ)-treated mice. STZ induces diabetes by destroying most, if not all, of the beta cells of the pancreas, leaving the animals with little or no insulin production and severe hyperglycemia [Hisashi, et al., European Journal of Pharmacology, 87:237-243 (1983)]. […] Mice were treated with STZ as described by Hisashi et al., European Journal of Pharmacology, 87:237-243 (1983). A 500 mg/kg dose of Artemisia dracunculus extract was administered daily by oral gavage to STZ-treated mice for a period of 7 days. Additionally, a dose of insulin (1 IU/kg) was administered. subcutaneously to STZ-treated mice, while 20 ml/kg of vehicle only (0.9% NaCl or 2% Tween 80 in distilled water) was administered to STZ-treated mice, as a control. […] Regardless of mechanism, however, the results establish that plant extracts, such as the mildly polar ethanolic extract of A. dracunculus, can be orally administered in a dose effective in lowering blood glucose levels.

One substance from patent publication US6893627B2, “Method for treating type 2 diabetes with an extract of Artemisia” (Rutgers, The State University of New Jersey, priority 2001, dated 2005) can be followed below.

As to insulin, the “reduction in blood glucose concentrations” value was found to be 42%.
